# Patent US20130217132A1, “METHODS, COMPOSITIONS AND USE FOR ENHANCING CHEMICAL TOLERANCE BY MICROORGANISMS” (priority 2009, published 2013)
# Where two headings read alike, the source gives them in different places.
# Assays:
# [1] = tested on: pBTL-1 Control (blank vector) culture; assay: Aerobic growth (specific growth, final OD600) in MOPS minimal media with inhibitor, control; format: cell-based, E. coli; conditions: for Specific Growth: n=3
# Description: (§1) Certain experiments described herein were performed in E. coli BW25113 recA-, with the kanamycin resistance gene removed.
# (§2) Cultures were grown in 10 ml MOPS minimal media, 100 μg carbenicillin/ml, and either 1 g furfural/1 supplemented, 2 g HMF/1, or 4 g acetate/1, in 15 ml conical tubes at 37° C. The optical density of 1 ml culture was measured with a spectrophotometer at 600 nm. A natural log transformation of the data was then calculated and then a regression line was fit to the data to calculate specific growth, which is […] to the culture doubling time. The blank vector, pBTL-1, served as the control. The lpcA gene was cloned into the pBTL-1 using standard cloning techniques and primers designed to amplify the gene from template DNA.
# pBTL-1 lpcA culture = format: cell-based, E. coli; conditions: for Specific Growth: n=3
# Description: as §1, §2
# E. coli MC1022 = conditions: cited from earlier work
# [2] = tested on: BW25113 ArecA cells transformed with the blank pBTL-1 vector; format: cell-based, E. coli; conditions: control cells
# Description: (§3) FIGS. 17A-17B represent methods of identification of a gene related to restoring tolerance. Multiple genome-wide SCALE selection was performed in the presence of ethanol, furfural and acetate respectively. The data set obtained for each compound was compared to the others. Alleles enriched in all cases were identified. […] To restore tolerance, overexpression of identified genes in bacterial cells was performed. For example, lpcA ORF was cloned into the pBTL-1 vector. BW25113 ArecA cells transformed with the blank pBTL-1 vector were used as a control. BW25113 ArecA cells overexpressing lpcA gene were referred to as pLPCA. Cells were inoculated at a standard cell density into MOPS minimal media, supplemented with furfural, acetate or ethanol. After 24 hours, growth of the cells was analyzed.
# (§4) The indicated cells were grown in MOPS minimal media supplemented with glucose as a carbon source. Furfural was added to the media at the concentration of 1 g/L. Arabinose was added at 10 mM where indicated to gauge effect of AraC binding. The BW25113 araC::FRT-kan clone corresponds to JW0063, a BW25113 araC knockout mutant ordered from the Keio Collection directly. pBTL-1 represented the blank vector, and pLPCA referred to lpcA gene overexpression. […] To analyze the LPS level in the cells indicated in FIG. 19, LPS are extracted from the cells grown to exponential phase. Loading of LPS for the protein gel is normalized to the cell number. The gel is stained to visualize LPS protein bands after desired separation is obtained.
# (§5) BW25113, MG1655, and derivatives were used where indicated. JW0063, an araC mutant of BW25113 was obtained from the Coli Genetic Stock Center (Yale). Overnight bacterial cultures were grown in Luria-Bertani medium with shaking. MOPS minimal medium (previously presented) with 0.2% glucose as a carbon source, was used for all seed cultures and growth studies. Seed cultures were inoculated at 2 v/v % from an overnight culture and were grown to mid-exponential phase. Growth cultures were inoculated with 10 v/v % seed cultures of an OD600 of 0.195-0.200 for an initial optical density of ˜0.02. Carbenicillin and kanamycin were used where appropriate at 100 μg/ml and 30 μg/ml, respectively. The pBTL-1 vector (previously described) was used as the control blank vector for all growth studies. Genome-wide furfural selection
# [3] = tested on: BW25113 ArecA cells overexpressing lpcA gene (pLPCA); format: cell-based, E. coli; conditions: for OD600 at 24 hr: pLPCA cells
# Description: as §3, §4, §5
# bacterial cultures = conditions: amino acid 10 mM, acetic acid 2.5 g/L, MOPS minimal medium, FIG. 4
# Description: In another exemplary method, amino acid supplementation of cultures was observed and illustrated by histogram plot. Overnight cultures were prepared from freezer stocks. Stationary phase overnight cultures were used for a 2.5% inoculation of 5 mL MOPS minimal medium plus carbenicillin. The OD600 was monitored until the culture reached an OD600=0.2. […] Amino acid supplementation was done by preparing stock solutions of amino acids and supplementing the media to a final concentration of 10 mM. Cultures were incubated at 37° C. and were shaken at 225 rpm. OD600 was monitored over the course of exponential growth and final measurements were taken after 24 hours. Specific growth rate was calculated by linear regression on the natural logarithm of the exponential phase OD600 over time.
# cell growth = conditions: concentrations as low as, cited from earlier work
# E. coli LY01 = conditions: starting pH of 6.0, acid at the IC50 obtained at a neutral pH; cited from earlier work
# membrane integrity = conditions: cited from earlier work
# E. coli = conditions: cited from earlier work
# [4] = furfural vs. furfuryl alcohol; cited from earlier work
# [5] = aerobic growth in 2 g/L hydroxymethyl furfural
# [6] = aerobic growth in 4 g/L acetate
smiles,measurement,setting,value
"O=Cc1ccc(CO)o1 [hydroxymethyl furfural, 5-(hydroxymethyl)-2-furaldehyde]",Final OD600 (24 hr),[1]; [5],0.170
same,Specific Growth,[1]; [5],0.045 h⁻¹
same,Final OD600 (24 hr),pBTL-1 lpcA culture; [5],1.014
same,Specific Growth,pBTL-1 lpcA culture; [5],0.234 h⁻¹
"COc1cc(C=O)ccc1O [vanillin, 4-hydroxy-3-methoxybenzaldehyde]",share of the population with membrane destabilization,E. coli MC1022; treatment for one hour at over three times the minimum inhibitory concentration,29%
same,share of the population with membrane destabilization,E. coli MC1022; when grown overnight after treatment,13%
CCO [ethanol],OD600 at 24 hr,[2]; 25 g/L of ethanol,0.4
same,improvement of final optical density by pLPCA in BW25113,[3]; ethanol 25 g/l,37±3%
same,OD600 at 24 hr,[3]; 25 g/L of ethanol,1.0
CSCC[C@H](N)C(=O)O [methionine],effect of amino acid supplementation on growth rate,bacterial cultures,greatest increase in growth rate
"CC(=O)O [acetate, acetic acid]",OD600 at 24 hr,[2]; 10 g/L of acetate,0.75
same,improvement of final optical density by pLPCA in BW25113,[3]; acetate 5 g/l,47±4%
same,OD600 at 24 hr,[3]; 10 g/L of acetate,1.4
same,Final OD600 (24 hr),[1]; [6],0.111
same,Specific Growth,[1]; [6],0.067 h⁻¹
same,concentration that retards growth,cell growth,0.5 g/L
same,acetate concentration shown to inhibit cell growth by 50%,cell growth; minimal media,0.5 g/L
same,Final OD600 (24 hr),pBTL-1 lpcA culture; [6],0.324
same,Specific Growth,pBTL-1 lpcA culture; [6],0.126 h⁻¹
same,"growth rate, percent that of control growth",E. coli LY01,0%
N=C(N)NCCC[C@H](N)C(=O)O [arginine],effect of amino acid supplementation on growth rate,bacterial cultures,greatest increase in growth rate
O=C(O)c1ccco1 [2-furoic acid],membrane leakage,membrane integrity,significant membrane leakage
O=CO [formic acid],"growth rate, percent that of control growth",E. coli LY01,35%
CC(=O)C=O [Methylgloxal],concentration inhibiting E. coli growth and protein synthesis,E. coli,0.07 g/L
OCc1ccco1 [furfuryl alcohol],membrane leakage,membrane integrity,significant membrane leakage
same,toxicity on a concentration basis,[4],~20 g/L
CC(=O)CCC(=O)O [levulinic acid],"growth rate, percent that of control growth",E. coli LY01,10%
